Counter-ions that a name gives are not always drawn.
Tests used:
SB.mhdgc-1 = assay: AC50 for growth inhibition (viability) (log10 M); higher = less potent; details: SB.mhdgc-1 (hereditary c.1380delA CDH1 gastric cancer)
How it was run: (§1)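 Values are log half-maximal activity concentrations from four-parameter fits of DMSO-normalised viability, restricted to high-quality curve classes. Patient-derived gastric cancer cells, hereditary or sporadic, were plated at 500 cells per 1536 well in 5 μL medium and given 23 nL compound in DMSO by pintool across 11 threefold dilutions, the top final concentration being 46 μM. Viability was read by ViewLux luminescence after 48 h and a 30 min CellTiter-Glo step at room temperature.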

SB.msgc-1 = assay: as above; details: SB.msgc-1 (sporadic gastric cancer)
How it was run: as §1

SMILES	AC50 for growth inhibition (log10 M) (SB.mhdgc-1)	AC50 for growth inhibition (log10 M) (SB.msgc-1)
O=C(NCc1ccccc1)c1csc(Nc2ccncn2)n1 [Thiazovivin]	-4.78	-4.78
CC(C)n1nc(-c2cc3cc(O)ccc3[nH]2)c2c(N)ncnc21 [PP-242]	-6.93	-5.28
C[C@@H]1C[C@H]2[C@@H]3\C=C(C)/C4=C/C5=C(C[C@]4(C)[C@H]3[C@@H](O)C[C@]2(C)[C@@]1(O)C(=O)COC(C)=O)C=N[N]5C6=CC=CC=C6 [Cortivazol]	-5.53	-5.58
N#CCNC(=O)c1ccc(-c2ccnc(Nc3ccc(N4CCOCC4)cc3)n2)cc1 [CYT387]	-4.78	-4.73
CN1CCN(CC1)C2=CC3=C([NH]C(=N3)C/4=C(\N)C5=C(F)C=CC=C5NC4=O)C=C2 [Dovitinib]	-4.78	-4.73
Nc1ncnc2c1ncn2[C@@H]1O[C@H](CO)[C@@H](O)[C@H]1O [Adenosine]	-6.08	-5.58
Cc1cnc(NC(=O)Nc2cc(Br)c(C)cc2OC[C@@H]2CNCCO2)cn1 [Rabusertib]	-4.88	-5.88
CCN(CC)C(=S)SSC(=S)N(CC)CC [Disulfiram]	-7.78	-7.28
COC(=O)C\1=C(C)\N\C(=C(/C1C2=CC=CC3=NON=C23)C(=O)OC(C)C)C (stereo unspecified) [Isradipine]	-5.38	-4.78
C[C@]1(CO)CN(c2cc(C(=O)Nc3ccc4c(c3)-c3c(c(C(N)=O)nn3-c3ccc(F)cc3)CC4)c(Cl)cn2)C[C@@]1(C)CO [PF-184]	-5.43	-5.08
C=CC(=O)Nc1cccc(Nc2nc(NC3CCC(N(C)C)CC3)nc3c2ncn3C(C)C)c1 (stereo unspecified)	-7.88	-7.43
CNC1CCC(N(Cc2cccc(-c3ccncc3)c2)C(=O)c2sc3ccccc3c2Cl)CC1 (stereo unspecified) [SAG]	-4.93	-4.88
Cn1cc(CNCC2CCN(c3ncc(C(=O)NO)cn3)CC2)c2ccccc21 [Quisinostat hydrochloride]	-6.73	-7.23
Cc1[nH]c2ccccc2c1CCNCc1ccc(/C=C/C(=O)NO)cc1 [Panobinostat]	-6.08	-6.98
C[C@@H]1CN[C@H]2[C@@H](C)[C@@]\3(CC[C@H]\4[C@@H]5C/C=C6/C[C@@H](O)CC[C@]6(C)[C@H]5CC4=C3C)O[C@@H]2C1 [Cyclopamine]	-4.68	-4.73
CNCC[C@H](Oc1cccc2ccccc12)c1cccs1 [Duloxetine hydrochloride]	-5.53	-5.58
C[C@@H]1CC[C@@]2(CC[C@]3(C)\C(=C/C[C@@H]4[C@@]5(C)CC[C@H](O)C(C)(C)[C@@H]5CC[C@@]34C)[C@@H]2[C@H]1C)C(O)=O [Ursolic acid]	-4.67	-4.47
Cc1cccc(/C=N/Nc2cc(N3CCOCC3)nc(OCCc3ccccn3)n2)c1 [Apilimod]	-4.88	-4.78
CC(C)NC[C@@H](C(=O)N1CCN(c2ncnc3c2[C@H](C)C[C@H]3O)CC1)c1ccc(Cl)cc1 [GDC-0068]	-6.48	-5.13

SMILES	AC50 for growth inhibition (log10 M) (SB.mhdgc-1)	AC50 for growth inhibition (log10 M) (SB.msgc-1)
CN1CC[C@H]([C@@H](O)C1)C2=C(O)C=C(O)C3=C2O\C(=C/C3=O)C4=CC=CC=C4Cl	-7.08	-7.13
CCCCc1nc2cc(/C=C/C(=O)NO)ccc2n1CCN(CC)CC [Pracinostat]	-5.33	-6.88
O=C(O)c1ccc2cc(-c3ccc(O)c(C45CC6CC(CC(C6)C4)C5)c3)ccc2c1 [AHPN]	-6.48	-4.83
CC[C@@H]1[C@@H](C)O[C@@](O)([C@@H](C)[C@H](O)[C@H](C)[C@H]2OC(=O)/C=C/C=C/[C@H](C)[C@@H]([C@@H](C)[C@@H](O)[C@H](C)[C@@]3(O)C[C@@H](O[C@H]4C[C@H](O)[C@H](O)[C@H](C)O4)[C@H](CC)[C@@H](C)O3)OC(=O)/C=C/C=C/[C@@H]2C)C[C@H]1O[C@H]1C[C@H](O)[C@H](O)[C@H](C)O1 [Azalomycin-B]	-6.38	-6.33
CC(NCc1ccc2c(c1)[nH]/c(=N\C(=O)c1ccc(-c3cn[nH]c3)s1)n2CC(C)(C)O)C(C)(C)C (stereo unspecified)	-5.43	-6.18
CCCCc1ccc(N[S+](=O)([O-])c2ccc(C)c(C(=O)N3CCN(c4cccc(C)c4C)CC3)c2)cc1 [IDH-001]	-4.83	-4.68
OC[C@H]1O[C@H](C[C@@H]1O)N2\C=C(F)/C(=O)NC2=O [Floxuridine]	-7.78	-6.48
CN(C)[S+](=O)([O-])c1ccc2c(c1)C(=Cc1cc3c([nH]1)CCCC3)C(=O)N2 [SU-6656]	-5.28	-5.43
CCC(CCCC)COC(=O)C(\C#N)=C(\c1ccccc1)c2ccccc2 (stereo unspecified) [Octocrylene]	-4.88	-4.88
CC[C@H](NC1=C2N=C[NH]C2=NC=N1)C/3=N/C4=C(C(=CC=C4)F)C(=O)N3C5=CC=CC=C5 [CAL-101]	-5.18	-5.43
COCCn1c2c([n+](Cc3cnccn3)c1C)C(=O)c1ccccc1C2=O [Sepantronium bromide]	-7.33	-7.73
Cc1nc2ccc(CN(C)c3ccc(C(=O)N[C@@H](CCC(=O)O)C(=O)O)s3)cc2c(=O)[nH]1 [Raltitrexed]	-7.48	-7.28
CC#C[C@]1(O)CC[C@H]2[C@@H]/3CCC/4=C/C(=O)CCC4=C3[C@H](C[C@]12C)C5=CC=C(C=C5)N(C)C [Mifepristone]	-7.23	-6.63
COc1c(C)cnc(Cn2cnc3c(Cl)nc(N)nc32)c1C [CNF-2024]	-6.33	-7.18
COc1ccc([S+](=O)([O-])N(C(C)=O)c2ccccc2/C=C/c2cc[n+]([O-])cc2)cc1 [IVX-214]	-6.53	-6.38
NC(=O)NO [Hydroxyurea]	-6.08	-6.88
CC1=CC=C(C=C1)N(C\C2=N\CCN2)C3=CC=CC(=C3)O [Phentolamine mesilate]	-4.98	-4.68
CC(=O)Nc1ccc([C@H](C)C(=O)Nc2ncc(C(C)C)s2)cc1	-7.13	-5.88
NC1(c2ccc(-c3nc4ccn5c(=O)[nH]nc5c4cc3-c3ccccc3)cc2)CCC1 [MK-2206]	-6.13	-4.68

— the supplement of paper PMC5412046
